The record followed here is patent US20220380378A1 (ESSA Pharma, Inc., priority 2021, published 2022).

Each structure is given as a SMILES string. Some results are limits rather than exact numbers.

In the test the target is T1, androgen receptor (AR) (Homo sapiens, UniProt P10275, T878A).
T1 sequence (P10275 1-920 T878A): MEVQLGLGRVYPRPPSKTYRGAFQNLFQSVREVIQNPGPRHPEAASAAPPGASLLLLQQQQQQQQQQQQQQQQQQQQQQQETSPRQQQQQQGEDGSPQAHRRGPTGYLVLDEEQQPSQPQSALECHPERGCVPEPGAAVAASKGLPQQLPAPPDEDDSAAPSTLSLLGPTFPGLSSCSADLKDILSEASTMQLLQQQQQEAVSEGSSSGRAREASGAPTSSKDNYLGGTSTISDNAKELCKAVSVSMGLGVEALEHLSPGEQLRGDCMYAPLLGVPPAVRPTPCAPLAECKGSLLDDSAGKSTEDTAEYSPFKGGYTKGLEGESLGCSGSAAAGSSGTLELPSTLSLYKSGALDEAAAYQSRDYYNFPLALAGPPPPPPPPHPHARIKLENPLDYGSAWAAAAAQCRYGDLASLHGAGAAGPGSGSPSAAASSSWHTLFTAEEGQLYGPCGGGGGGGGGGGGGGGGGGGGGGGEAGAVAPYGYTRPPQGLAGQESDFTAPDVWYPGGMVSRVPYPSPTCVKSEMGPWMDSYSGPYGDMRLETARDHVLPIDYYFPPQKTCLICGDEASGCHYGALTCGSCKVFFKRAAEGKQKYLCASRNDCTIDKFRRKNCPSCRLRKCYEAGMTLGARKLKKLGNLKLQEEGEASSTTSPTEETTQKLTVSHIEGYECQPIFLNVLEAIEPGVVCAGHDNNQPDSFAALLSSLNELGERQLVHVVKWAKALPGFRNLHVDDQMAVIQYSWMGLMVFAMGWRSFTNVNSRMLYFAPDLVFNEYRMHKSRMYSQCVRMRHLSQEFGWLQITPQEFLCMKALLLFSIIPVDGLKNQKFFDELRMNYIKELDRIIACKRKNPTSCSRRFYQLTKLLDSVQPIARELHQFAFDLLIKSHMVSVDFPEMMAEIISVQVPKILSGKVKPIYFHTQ
Briefly: Androgen-induced PSA (6.1 kb)-luciferase reporter assay in LNCaP cells (R1881 1 nM). Conditions: 24 h, read-out: PSA-Luc IC50 Range. It is filed as cell-based. Details: endogenous in cells; host or cells: LNCaP. Put shortly:
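Compound or vehicle was added 1 h before 1 nM R1881 to LNCaP cells carrying a transiently transfected (24 h) PSA (6.1 kb)-luciferase reporter. After 24 h androgen exposure, lysate luminescence was normalized to protein and expressed versus vehicle plus R1881 for IC50.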
(In general: Reporter assays use an easily measured gene product as a stand-in for the process of interest.)
In general, IC50 refers to the concentration that inhibits the measured activity by half. Regarding `CS(=O)(=O)N1CCN(CCOc2ccc3c(ccn3-c3cc(Cl)c(OCCCl)c(C#N)c3)c2)CC1` [Compound A206], the IC50 fell in the range of 500 to 2000 nM.

Take `CS(=O)(=O)N[C@@H]1CC[C@@H](Oc2ccc3c(ccn3-c3cc(Cl)c(OCCCl)c(C#N)c3)c2)C1` [Compound A207]: the IC50 was in the range of 500 to 2000 nM.

In the case of `CS(=O)(=O)N[C@H]1CC[C@@H](COc2ccc3c(ccn3-c3cc(Cl)c(OCCCl)c(C#N)c3)c2)CC1` [Compound A208], the IC50 is above 2000 nM.

As to `CS(=O)(=O)NC[C@H]1CC[C@H](COc2ccc3c(ccn3-c3cc(Cl)c(OCCCl)c(C#N)c3)c2)CC1` [Compound A209], the IC50 was in the range of 500 to 2000 nM.

In the case of `CS(=O)(=O)N1CCC(COc2ccc3c(ccn3-c3cc(Cl)c(OCCCl)c(C#N)c3)c2)C1` (centres unmarked) [Compound A210], the IC50 was 500 to 2000 nM.

With `CC(C)(c1ccc(-c2c[nH]c3c(NS(C)(=O)=O)ncnc23)cc1)c1cc(Cl)c(OCCCl)c(C#N)c1` [Compound A211], the IC50 was above 2000 nM.

As for `CC(C)(c1ccc(-c2cnc3c(c2)CCC(NS(C)(=O)=O)C3)cc1)c1cc(Cl)c(OCCCl)c(C#N)c1` (centres unmarked) [Compound A214], the IC50 was in the range of 500 to 2000 nM.

`CC(C)(c1ccc(-c2cnc3c(c2)CCCC3NS(C)(=O)=O)cc1)c1cc(Cl)c(OCCCl)c(C#N)c1` (centres unmarked) [Compound A216]: the IC50 is above 2000 nM.

For `CS(=O)(=O)Nc1nccc(COc2ccc3c(-c4cc(Cl)c(OCCCl)c(C#N)c4)c[nH]c3c2)n1` [Compound A218], the IC50 was above 2000 nM.

In the case of `CC(C)(c1ccc(-c2cnc3nc(NS(C)(=O)=O)cnc3c2)cc1)c1cc(Cl)c(OCCCl)c(C#N)c1` [Compound A219], the IC50 lay within 500 to 2000 nM.

`CS(=O)(=O)NC1CCN(CCOc2ccc3c(ccn3-c3cc(Cl)c(OCCCl)c(C#N)c3)c2)CC1` [Compound A220]: the IC50 is above 2000 nM.

`CS(=O)(=O)N1C[C@H]2C[C@@H](Oc3ccc4c(ccn4-c4cc(Cl)c(OCCCl)c(C#N)c4)c3)C[C@H]2C1` [Compound A221]: the IC50 is 500 to 2000 nM.

As to `CS(=O)(=O)N1CCC2(CCC2Oc2ccc3c(ccn3-c3cc(Cl)c(OCCCl)c(C#N)c3)c2)CC1` (centres unmarked) [Compound A222], the IC50 is 500 to 2000 nM.

Regarding `CS(=O)(=O)N1CC2CC(Oc3ccc4c(ccn4-c4cc(Cl)c(OCCCl)c(C#N)c4)c3)CC2C1` (centres unmarked) [Compound A223], the IC50 is 500 to 2000 nM.

For `CS(=O)(=O)N1CCC[C@@H]1COc1ccc2c(ccn2-c2cc(Cl)c(OCCCl)c(C#N)c2)c1` [Compound A224], the half-maximal inhibitory concentration (IC50) is 500 to 2000 nM.

On to `CS(=O)(=O)N1CC(CCOc2ccc3c(ccn3-c3cc(Cl)c(OCCCl)c(C#N)c3)c2)C1` [Compound A225], for which the IC50 was in the range of 500 to 2000 nM.

As for `CS(=O)(=O)N[C@H]1CC[C@@H](Oc2ccc3c(ccn3-c3cc(Cl)c(OCCCl)c(C#N)c3)c2)C1` [Compound A226], the IC50 lay within 500 to 2000 nM.

`CS(=O)(=O)NC1(CCOc2ccc3c(ccn3-c3cc(Cl)c(OCCCl)c(C#N)c3)c2)CC1` [Compound A227]: the IC50 was 500 to 2000 nM.

In the case of `CC(C)(c1ccc(-c2ccc3c(c2)OCCN3S(C)(=O)=O)cc1)c1cc(Cl)c(OCCCl)c(C#N)c1` [Compound A228], the IC50 was above 2000 nM.

Turning to `CC(C)(c1ccc(-c2cnc3c(c2)OCCN3S(C)(=O)=O)cc1)c1cc(Cl)c(OCCCl)c(C#N)c1` [Compound A229], the IC50 lay within 500 to 2000 nM.

`CC(C)(c1ccc(-c2ccc3c(c2)OCC(CNS(C)(=O)=O)O3)cc1)c1cc(Cl)c(OCCCl)c(C#N)c1` (centres unmarked) [Compound A230]: the IC50 is above 2000 nM.

On to `CS(=O)(=O)N[C@@H]1CC[C@H](Oc2ccc3c(ccn3-c3cc(Cl)c(OCCCl)c(C#N)c3)c2)C1` [Compound A233], for which the IC50 was 500 to 2000 nM.

`CS(=O)(=O)N1CC2(CCN(Cc3ccc4c(ccn4-c4cc(Cl)c(OCCCl)c(C#N)c4)c3)CC2)C1` [Compound A235]: the 50% inhibitory concentration (IC50) is above 2000 nM.

With `CS(=O)(=O)NCC1CCN(Cc2ccc3c(ccn3-c3cc(Cl)c(OCCCl)c(C#N)c3)c2)CC1` [Compound A236], the 50% inhibitory concentration (IC50) is above 2000 nM.

Consider `CN(C1CCN(Cc2ccc3c(ccn3-c3cc(Cl)c(OCCCl)c(C#N)c3)c2)CC1)S(C)(=O)=O` [Compound A237], for which the IC50 is above 2000 nM.

Regarding `CC1(NS(C)(=O)=O)CCN(Cc2ccc3c(ccn3-c3cc(Cl)c(OCCCl)c(C#N)c3)c2)CC1` [Compound A238], the IC50 is above 2000 nM.

Take `CC(C)(c1ccc(OCc2ccnc(NS(C)(=O)=O)n2)cc1)c1cc(F)c(N2CC3(CCC3)C2)c(C#N)c1` [Compound A240, N-(4-((4-(2-(3-cyano-5-fluoro-4-(2-azaspiro[3.3]heptan-2-yl)phenyl)propan-2-yl)phenoxy)methyl)pyrimidin-2-yl)methanesulfonamide]: the IC50 was above 2000 nM.

Turning to `CS(=O)(=O)N1CC2(CN(Cc3ccc4c(ccn4-c4cc(Cl)c(OCCCl)c(C#N)c4)c3)C2)C1` [Compound A241, 3-chloro-2-(2-chloroethoxy)-5-(5-((6-(methylsulfonyl)-2,6-diazaspiro[3.3]heptan-2-yl)methyl)-1H-indol-1-yl)benzonitrile], the IC50 was above 2000 nM.

With `CS(=O)(=O)N[C@H]1CC[C@H](Oc2ccc3c(ccn3-c3cc(Cl)c(OCCCl)c(C#N)c3)c2)CC1` [Compound A242], the IC50 was in the range of 500 to 2000 nM.

Consider `CC(C)(c1ccc(-c2cnc3c(c2)C(NS(C)(=O)=O)CCC3)cc1)c1cc(Cl)c(OCCCl)c(C#N)c1` (centres unmarked) [Compound A243], for which the IC50 was above 2000 nM.

As for `CC1(NS(C)(=O)=O)CN(CCc2ccc3c(ccn3-c3cc(Cl)c(OCCCl)c(C#N)c3)c2)C1` [Compound A244], the IC50 was above 2000 nM.

For the compound `CS(=O)(=O)NC1CCCN(CCc2ccc3c(ccn3-c3cc(Cl)c(OCCCl)c(C#N)c3)c2)C1` (centres unmarked) [Compound A245], the IC50 was above 2000 nM.

`CS(=O)(=O)NC12CC(COc3ccc4c(c3)CCCC4c3cc(Cl)c(OCCCl)c(C#N)c3)(C1)C2` (centres unmarked) [Compound A247]: the IC50 is above 2000 nM.

As for `CS(=O)(=O)NCC1CCN1CCc1ccc2c(ccn2-c2cc(Cl)c(OCCCl)c(C#N)c2)c1` (centres unmarked) [Compound A248], the IC50 was above 2000 nM.

`CS(=O)(=O)N1CCC12CN(CCc1ccc3c(ccn3-c3cc(Cl)c(OCCCl)c(C#N)c3)c1)C2` [Compound A249]: the IC50 was above 2000 nM.

Take `CC(C)(c1ccc(OCc2ccnc(NS(C)(=O)=O)n2)cc1)c1cc(F)c(N2CCC2)c(C#N)c1` [Compound A251]: the IC50 lay within 500 to 2000 nM.

As for `CC1CN(c2c(F)cc(C(C)(C)c3ccc(OCc4ccnc(NS(C)(=O)=O)n4)cc3)cc2C#N)C1` [Compound A252], the IC50 was 500 to 2000 nM.

With `CC(C)(c1ccc(OCc2ccnc(NS(C)(=O)=O)n2)cc1)c1cc(F)c(N2CC(CO)C2)c(C#N)c1` [Compound A253], the IC50 is above 2000 nM.

In the case of `CC(C)(c1ccc(-c2ccc3oc(NS(C)(=O)=O)nc3c2)cc1)c1cc(Cl)c(OCCCl)c(C#N)c1` [Compound A255], the IC50 lay in the range of 500 to 2000 nM.

In the case of `CC(C)(c1ccc(-c2cnc3oc(NS(C)(=O)=O)nc3c2)cc1)c1cc(Cl)c(OCCCl)c(C#N)c1` [Compound A256], the IC50 is above 2000 nM.

With `CC(C)(c1ccc(-c2cnc3nc(NS(C)(=O)=O)oc3c2)cc1)c1cc(Cl)c(OCCCl)c(C#N)c1` [Compound A257], the IC50 was above 2000 nM.

Take `CC(C)(c1ccc(OCc2ccnc(NS(C)(=O)=O)n2)cc1)c1cc(Cl)c(OCC(O)CCl)c(C#N)c1` (centres unmarked) [Compound A258]: the IC50 was above 2000 nM.

For the compound `CC(C)(c1ccc(OCc2ccnc(NS(C)(=O)=O)n2)cc1)c1cc(F)c(N2CC(O)C2)c(C#N)c1` [Compound A259], the IC50 was below 500 nM.

Take `CC1(C)CN(c2c(F)cc(C(C)(C)c3ccc(OCc4ccnc(NS(C)(=O)=O)n4)cc3)cc2C#N)C1` [Compound A260]: the IC50 was 500 to 2000 nM.

`CC(C)(c1ccc(OCc2ccnc(NS(C)(=O)=O)n2)cc1)c1cc(F)c(N2CCCCC2)c(C#N)c1` [Compound A261]: the IC50 was in the range of 500 to 2000 nM.

As to `CC(C)(c1ccc(-c2cc3cnc(NS(C)(=O)=O)nn3c2)cc1)c1cc(Cl)c(OCCCl)c(C#N)c1` [Compound A263], the IC50 was above 2000 nM.

Take `C[C@H](Oc1ccc(C(C)(C)c2cc(Cl)c(OCCCl)c(C#N)c2)cc1)C12CC(NS(C)(=O)=O)(C1)C2` [Compound A265]: the IC50 is 500 to 2000 nM.

As to `CS(=O)(=O)N[C@H]1C[C@H](COc2ccc3c(c2)CCC3c2cc(Cl)c(OCCCl)c(C#N)c2)C1` (some centres unmarked) [Compound A266], the IC50 lay within 500 to 2000 nM.

As for `CC(C)(c1ccc(OCc2ccnc(NS(C)(=O)=O)n2)cc1)c1cc(Cl)c(N2CC3(CCC3)C2)c(C#N)c1` [Compound A267], the IC50 is 500 to 2000 nM.

With `COc1c(Cl)cc(C(C)(C)c2ccc(OCC34CC(NS(C)(=O)=O)(C3)C4)cc2)cc1C#N` [Compound A268], the IC50 fell in the range of 500 to 2000 nM.
